Consider one compound from patent publication US20230286919A1, “ISOQUINOLINE DERIVATIVES FOR USE IN THERAPY” (Vestlandets Innovasjonsselskap AS, priority 2020, published 2023).

The target in assay [1] is T1, STAT3 dimerization (Homo sapiens, UniProt P40763).
T1 construct: expressed in transfected cells; host or cells: 293T cells
Briefly: Co-immunoprecipitation of HA-STAT3 and FLAG-STAT3 in 293T cells. The format is cell-based. The settings on record: 50 μM, 24 hours, compared with S3I-201 (200 μM). Here is the method:
293T cells were collected in the medium and centrifuged at 800 g x 5 min, then washed with cold PBS twice before adding 500 μl Pierce™ IP Lysis Buffer (Thermofisher Scientific, 87787), containing protease and phosphatase inhibitor cocktail without DTT (Roche, 11836153001), into the cells. Cell lysates were passed several times through a 27^1/2-gauge needle to disrupt the nuclei. 1-2 mg extracts were added with pre-cleaned 50 μL slurry of Pierce™ […] Magnetic Agarose (Thermoscientific, A36797), then supernatant were collect with magnet and immunoprecipitated (IP) at RT on a rotator for 30 min. Beads were boiled at 95° C. for 5 min followed by adding the 100 μL of 1× Non-reducing Sample Buffer (Thermofisher Scientific, 39000) into beads. The supernatant was collected with a magnet and then added 5 μL of 1M DTT (Thermoscientific, P2325) into sample prior to proceeding the immunoblotting.
Nuclear translocation of the STAT3 dimers mediates the STAT3 transcriptional activity.

In assay [2] the test system is DU145 cells. Briefly: Flow cytometric analysis of cell apoptosis. It is filed as cell-based, human. Conditions: 72 hrs. Here is the method: The […] effect of compounds 323-1 and 323-2 was evaluated in DU145 cells.
Data are shown as representative results of three experiments.

Assay [3] relates to DU145, PC3, EPT3M1-STAT3, and 22Rv1 cells. As to the kind of experiment: In vitro clonogenic assay. The format is cell-based, human. The settings on record: DU145, PC3, EPT3M1-STAT3, 22Rv1; 2 weeks. How it is done:
On the second day after seeding single cells, 323-1 and 323-2 were added at various concentrations, and cells were allowed to grow for 2 weeks to form colonies, then stained with 0.4% crystal violet (w/v).

Assay [4] has as its system STAT3 target genes (Cyclin D1, BCL-XL, MCL1, Survivin, PARP). Briefly: Western blot of STAT3 target gene proteins. The format is cell-based, human. Here is the method:
As reported, aberrant STAT3 regulates the expression of downstream target genes involved in anti-apoptosis (Bcl-2, Mcl-1, survivin, and Bcl-xL), cell cycle (cyclin D1 and c-Myc), angiogenesis (VEGF and HIF1α), invasion and metastasis (MMP-1, MMP-2, MMP-9) and the inhibition of host immune surveillance. To further identify the characterization of the properties of 323-1 and 323-2, DU145, EPT3-M1-STAT3 and LNCaP cells were treated with 323-1 and 323-2 followed by western blotting.
To obtain the results shown in FIG. 13, EPT3M1-STAT3 or LNCaP cells were treated with DMSO, 20 μM of compound 323-1, or 20 μM of compound 323-2 for 48 hrs, respectively. Lysates were analysed and loaded to western blotting.

For assay [5], the system named is DNA-binding domain of STAT1, STAT3, STAT5A, STAT5B. Briefly: STAT family DNA binding assay on nuclear extracts of DU145 cells. The format is cell-based, human. Conditions: 5-20 μM, 24 hrs. Here is the method:
The nuclear extraction was performed according to the STAT Family Transcription Factor Assay Kit (Abcam, ab207228). First, cells were washed with ice-cold PBS and Phosphatase Inhibitors Cocktail (125 mM NaF, […] p-glycerophosphatase, 250 mM PNPP, 25 mM NaVO3) in ice-cold PBVS was added and cells scraped off the dish. Then cells were collected at 300×g for 5 minutes at 4° C. The pellet was resuspended in hypotonic buffer (20 mM Hepes pH7.5, 5 mM NaF, 10 μM Na2MoO4, 0.1 mM EDTA) and 10% NP-40 was added to a final concentration 0.5% and mixed well. The mixture was centrifugated at 4° C. for 30 seconds in a microcentrifuge and supernatant was discarded. […] Stop solution was added when the wells turned medium to dark blue followed by measurement of absorbance at OD 450 nm. […]

The mark [6] stands for this setting: EPT3-M1-STAT3 and LNCaP cells, 20 μM, 48 hrs.

The structures appear in SMILES notation.

T1 sequence (P40763 whole entry): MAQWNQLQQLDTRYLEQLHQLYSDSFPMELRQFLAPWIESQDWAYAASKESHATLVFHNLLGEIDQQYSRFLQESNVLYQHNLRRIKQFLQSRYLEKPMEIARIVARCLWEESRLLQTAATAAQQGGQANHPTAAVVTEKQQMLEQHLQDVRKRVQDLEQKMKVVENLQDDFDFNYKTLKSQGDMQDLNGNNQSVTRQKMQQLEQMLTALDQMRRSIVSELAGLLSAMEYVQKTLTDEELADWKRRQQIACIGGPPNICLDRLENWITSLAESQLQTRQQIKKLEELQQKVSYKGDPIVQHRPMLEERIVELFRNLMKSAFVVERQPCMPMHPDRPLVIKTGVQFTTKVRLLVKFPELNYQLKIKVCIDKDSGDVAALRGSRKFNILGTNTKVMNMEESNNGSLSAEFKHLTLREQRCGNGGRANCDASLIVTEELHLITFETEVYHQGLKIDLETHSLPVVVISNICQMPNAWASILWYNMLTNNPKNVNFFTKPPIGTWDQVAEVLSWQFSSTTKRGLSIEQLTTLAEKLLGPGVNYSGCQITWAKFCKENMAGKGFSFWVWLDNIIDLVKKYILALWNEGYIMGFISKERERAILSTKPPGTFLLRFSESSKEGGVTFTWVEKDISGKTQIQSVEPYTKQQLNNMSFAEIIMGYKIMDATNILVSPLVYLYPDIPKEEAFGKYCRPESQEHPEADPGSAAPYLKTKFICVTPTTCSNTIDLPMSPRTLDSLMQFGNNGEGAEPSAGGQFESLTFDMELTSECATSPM

In the case of `C[C@@H]1CCC(c2cc3c4c(cncc4c2)[C@@H](C)C3)=C1C=O` [323-2, (15S,2R)-Delavatine A], the “Dimerization of STAT3 (HA-STAT3/FLAG-STAT3)” value in assay [1] is recorded as “could disrupt the dimerization of STAT3”. Moreover, in assay [2], the Induction of apoptosis result is on record as “appeared to induce apoptosis” and the “Induction of apoptosis compared with cryptotanshinone” value was “much weaker than by cryptotanshinone”. Moreover, in assay [3], the Colony formation entry is recorded as “Concentration-dependent inhibition of colony formation”. Moreover, in assay [4] (setting [6]), the “Protein level of STAT3 target gene MCL1” value is “repressed” and the “Protein level of Survivin or PARP” value was “but not Survivin or PARP”. For the same compound, the “Expression of Cyclin D1” value in assay [4] (LNCaP cells) is listed as “down-regulated dose-dependently”. Besides, the “Effect on DNA binding of STAT1, STAT3, STAT5A, STAT5B” value in assay [5] is “neither 323-1 nor 323-2 affected”.
